In ChEMBL document CHEMBL5338802, “To Fold or Not to Fold: Diastereomeric Optimization of an α-Helical Antimicrobial Peptide” (J Med Chem, 2023):

System: Erythrocyte
Assay: Hemolytic activity in human RBC incubated for 4 hrs by visual analysis
Assay type: toxicity, cell-based
Details: not given

Compound | MHC [µg/mL]
CC(C)C[C@H](NC(=O)[C@H](CC(C)C)NC(=O)[C@H](CC(C)C)NC(=O)[C@H](CCCCN)NC(=O)[C@H](CC(C)C)NC(=O)[C@H](CC(C)C)NC(=O)[C@@H](CCCCN)NC(=O)[C@H](CC(C)C)NC(=O)[C@H](CC(C)C)NC(=O)[C@@H](CCCCN)NC(=O)[C@H](N)CCCCN)C(N)=O | < 15.6
CC(C)C[C@H](NC(=O)[C@H](CC(C)C)NC(=O)[C@@H](CCCCN)NC(=O)[C@H](CC(C)C)NC(=O)[C@H](CC(C)C)NC(=O)[C@@H](CCCCN)NC(=O)[C@@H](CC(C)C)NC(=O)[C@H](CC(C)C)NC(=O)[C@H](CCCCN)NC(=O)[C@@H](N)CCCCN)C(=O)N[C@H](CC(C)C)C(N)=O | > 2000
CC(C)C[C@H](NC(=O)[C@H](CC(C)C)NC(=O)[C@H](CC(C)C)NC(=O)[C@@H](CCCCN)NC(=O)[C@@H](CC(C)C)NC(=O)[C@@H](CC(C)C)NC(=O)[C@@H](CCCCN)NC(=O)[C@@H](CC(C)C)NC(=O)[C@H](CC(C)C)NC(=O)[C@H](CCCCN)NC(=O)[C@@H](N)CCCCN)C(N)=O | 250
CC(C)C[C@H](NC(=O)[C@H](CC(C)C)NC(=O)[C@@H](CC(C)C)NC(=O)[C@H](CCCCN)NC(=O)[C@H](CC(C)C)NC(=O)[C@@H](CC(C)C)NC(=O)[C@H](CCCCN)NC(=O)[C@H](CC(C)C)NC(=O)[C@@H](CC(C)C)NC(=O)[C@@H](CCCCN)NC(=O)[C@@H](N)CCCCN)C(N)=O | > 2000
CC(C)CC(NC(=O)C(CC(C)C)NC(=O)C(CC(C)C)NC(=O)C(CCCCN)NC(=O)C(CC(C)C)NC(=O)[C@H](CC(C)C)NC(=O)C(CCCCN)NC(=O)C(CC(C)C)NC(=O)C(CC(C)C)NC(=O)C(CCCCN)NC(=O)C(N)CCCCN)C(N)=O (some centres not stated) | 2000
CC(C)C[C@H](NC(=O)[C@H](CC(C)C)NC(=O)[C@H](CC(C)C)NC(=O)[C@H](CCCCN)NC(=O)[C@H](CC(C)C)NC(=O)[C@@H](CC(C)C)NC(=O)[C@H](CCCCN)NC(=O)[C@@H](CC(C)C)NC(=O)[C@@H](CC(C)C)NC(=O)[C@@H](CCCCN)NC(=O)[C@@H](N)CCCCN)C(N)=O | 250
CC(C)C[C@H](NC(=O)[C@H](CC(C)C)NC(=O)[C@@H](CCCCN)NC(=O)[C@H](CC(C)C)NC(=O)[C@H](CC(C)C)NC(=O)[C@@H](CCCCN)NC(=O)[C@H](CC(C)C)NC(=O)[C@H](CC(C)C)NC(=O)[C@@H](CCCCN)NC(=O)[C@H](N)CCCCN)C(=O)N[C@H](CC(C)C)C(N)=O | > 2000
CC(C)C[C@H](NC(=O)[C@H](CC(C)C)NC(=O)[C@H](CC(C)C)NC(=O)[C@H](CCCCN)NC(=O)[C@@H](CC(C)C)NC(=O)[C@@H](CC(C)C)NC(=O)[C@@H](CCCCN)NC(=O)[C@H](CC(C)C)NC(=O)[C@H](CC(C)C)NC(=O)[C@H](CCCCN)NC(=O)[C@@H](N)CCCCN)C(N)=O | 31.3
CC(C)C[C@H](NC(=O)[C@@H](CC(C)C)NC(=O)[C@@H](CC(C)C)NC(=O)[C@H](CCCCN)NC(=O)[C@H](CC(C)C)NC(=O)[C@H](CC(C)C)NC(=O)[C@H](CCCCN)NC(=O)[C@H](CC(C)C)NC(=O)[C@@H](CC(C)C)NC(=O)[C@@H](CCCCN)NC(=O)[C@@H](N)CCCCN)C(N)=O | 1000
CC(C)C[C@H](NC(=O)[C@H](CC(C)C)NC(=O)[C@@H](CC(C)C)NC(=O)[C@@H](CCCCN)NC(=O)[C@H](CC(C)C)NC(=O)[C@H](CC(C)C)NC(=O)[C@H](CCCCN)NC(=O)[C@@H](CC(C)C)NC(=O)[C@@H](CC(C)C)NC(=O)[C@H](CCCCN)NC(=O)[C@@H](N)CCCCN)C(N)=O | 1000
CC(C)C[C@H](NC(=O)[C@H](CCCCN)NC(=O)[C@H](N)CCCCN)C(=O)N[C@@H](CC(C)C)C(=O)N[C@H](CCCCN)C(=O)N[C@H](CC(C)C)C(=O)N[C@H](CC(C)C)C(=O)N[C@@H](CCCCN)C(=O)N[C@@H](CC(C)C)C(=O)N[C@@H](CC(C)C)C(=O)N[C@H](CC(C)C)C(N)=O | 1000
CC(C)C[C@H](NC(=O)[C@H](CC(C)C)NC(=O)[C@H](CC(C)C)NC(=O)[C@H](CCCCN)NC(=O)[C@H](CC(C)C)NC(=O)[C@H](CC(C)C)NC(=O)[C@@H](CCCCN)NC(=O)[C@H](CC(C)C)NC(=O)[C@H](CC(C)C)NC(=O)[C@@H](CCCCN)NC(=O)[C@@H](N)CCCCN)C(N)=O | < 15.6
CC(C)CC(NC(=O)C(CC(C)C)NC(=O)C(CC(C)C)NC(=O)C(CCCCN)NC(=O)C(CC(C)C)NC(=O)C(CC(C)C)NC(=O)C(CCCCN)NC(=O)C(CC(C)C)NC(=O)C(CC(C)C)NC(=O)C(CCCCN)NC(=O)C(N)CCCCN)C(N)=O (racemic) | 1000
CC(C)C[C@H](NC(=O)[C@H](CCCCN)NC(=O)[C@H](CC(C)C)NC(=O)[C@H](CC(C)C)NC(=O)[C@@H](CCCCN)NC(=O)[C@H](CC(C)C)NC(=O)[C@H](CC(C)C)NC(=O)[C@@H](CCCCN)NC(=O)[C@H](N)CCCCN)C(=O)N[C@@H](CC(C)C)C(=O)N[C@H](CC(C)C)C(N)=O | 1000
CC(C)C[C@@H](NC(=O)[C@@H](CC(C)C)NC(=O)[C@@H](CC(C)C)NC(=O)[C@@H](CCCCN)NC(=O)[C@@H](CC(C)C)NC(=O)[C@@H](CC(C)C)NC(=O)[C@@H](CCCCN)NC(=O)[C@@H](CC(C)C)NC(=O)[C@@H](CC(C)C)NC(=O)[C@@H](CCCCN)NC(=O)[C@H](N)CCCCN)C(N)=O | 125
CC(C)C[C@H](NC(=O)[C@H](CC(C)C)NC(=O)[C@@H](CCCCN)NC(=O)[C@H](CC(C)C)NC(=O)[C@H](CC(C)C)NC(=O)[C@@H](CCCCN)NC(=O)[C@H](N)CCCCN)C(=O)N[C@@H](CCCCN)C(=O)N[C@@H](CC(C)C)C(=O)N[C@H](CC(C)C)C(=O)N[C@H](CC(C)C)C(N)=O | > 2000
CC(C)C[C@H](NC(=O)[C@H](CCCCN)NC(=O)[C@H](CC(C)C)NC(=O)[C@H](CC(C)C)NC(=O)[C@@H](CCCCN)NC(=O)[C@H](N)CCCCN)C(=O)N[C@@H](CC(C)C)C(=O)N[C@@H](CCCCN)C(=O)N[C@@H](CC(C)C)C(=O)N[C@H](CC(C)C)C(=O)N[C@H](CC(C)C)C(N)=O | 1000
CC(C)C[C@H](NC(=O)[C@H](CC(C)C)NC(=O)[C@H](CC(C)C)NC(=O)[C@H](CCCCN)NC(=O)[C@@H](CC(C)C)NC(=O)[C@@H](CC(C)C)NC(=O)[C@H](CCCCN)NC(=O)[C@H](CC(C)C)NC(=O)[C@H](CC(C)C)NC(=O)[C@H](CCCCN)NC(=O)[C@@H](N)CCCCN)C(N)=O | 500
CC(C)C[C@H](NC(=O)[C@H](CC(C)C)NC(=O)[C@H](CC(C)C)NC(=O)[C@H](CCCCN)NC(=O)[C@@H](CC(C)C)NC(=O)[C@@H](CC(C)C)NC(=O)[C@H](CCCCN)NC(=O)[C@@H](CC(C)C)NC(=O)[C@@H](CC(C)C)NC(=O)[C@H](CCCCN)NC(=O)[C@@H](N)CCCCN)C(N)=O | 1000
CC(C)C[C@H](NC(=O)[C@H](CC(C)C)NC(=O)[C@H](CC(C)C)NC(=O)[C@@H](CCCCN)NC(=O)[C@H](CC(C)C)NC(=O)[C@H](CC(C)C)NC(=O)[C@@H](CCCCN)NC(=O)[C@H](CC(C)C)NC(=O)[C@H](CC(C)C)NC(=O)[C@@H](CCCCN)NC(=O)[C@H](N)CCCCN)C(N)=O | 1000
CC(C)C[C@H](NC(=O)[C@H](CC(C)C)NC(=O)[C@@H](CC(C)C)NC(=O)[C@@H](CCCCN)NC(=O)[C@H](CC(C)C)NC(=O)[C@H](CC(C)C)NC(=O)[C@@H](CCCCN)NC(=O)[C@@H](CC(C)C)NC(=O)[C@H](CC(C)C)NC(=O)[C@H](CCCCN)NC(=O)[C@@H](N)CCCCN)C(N)=O | 125
CC(C)C[C@H](NC(=O)[C@@H](CC(C)C)NC(=O)[C@H](CC(C)C)NC(=O)[C@H](CCCCN)NC(=O)[C@@H](CC(C)C)NC(=O)[C@H](CC(C)C)NC(=O)[C@H](CCCCN)NC(=O)[C@@H](CC(C)C)NC(=O)[C@@H](CC(C)C)NC(=O)[C@H](CCCCN)NC(=O)[C@@H](N)CCCCN)C(N)=O | > 2000
CC(C)C[C@H](NC(=O)[C@@H](CC(C)C)NC(=O)[C@H](CC(C)C)NC(=O)[C@@H](CCCCN)NC(=O)[C@H](CC(C)C)NC(=O)[C@@H](CC(C)C)NC(=O)[C@H](CCCCN)NC(=O)[C@@H](CC(C)C)NC(=O)[C@H](CC(C)C)NC(=O)[C@@H](CCCCN)NC(=O)[C@@H](N)CCCCN)C(N)=O | > 2000
CC(C)C[C@H](NC(=O)[C@H](CC(C)C)NC(=O)[C@@H](CC(C)C)NC(=O)[C@H](CCCCN)NC(=O)[C@@H](CC(C)C)NC(=O)[C@@H](CC(C)C)NC(=O)[C@H](CCCCN)NC(=O)[C@@H](CC(C)C)NC(=O)[C@@H](CC(C)C)NC(=O)[C@H](CCCCN)NC(=O)[C@@H](N)CCCCN)C(N)=O | > 2000
CC(C)C[C@H](NC(=O)[C@@H](CC(C)C)NC(=O)[C@H](CCCCN)NC(=O)[C@@H](CC(C)C)NC(=O)[C@H](CC(C)C)NC(=O)[C@@H](CCCCN)NC(=O)[C@H](CC(C)C)NC(=O)[C@@H](CC(C)C)NC(=O)[C@H](CCCCN)NC(=O)[C@H](N)CCCCN)C(=O)N[C@H](CC(C)C)C(N)=O | > 2000
CC(C)C[C@H](NC(=O)[C@H](CC(C)C)NC(=O)[C@H](CC(C)C)NC(=O)[C@H](CCCCN)NC(=O)[C@@H](CC(C)C)NC(=O)[C@@H](CC(C)C)NC(=O)[C@H](CCCCN)NC(=O)[C@@H](CC(C)C)NC(=O)[C@@H](CC(C)C)NC(=O)[C@@H](CCCCN)NC(=O)[C@@H](N)CCCCN)C(N)=O | 250
CC(C)C[C@H](NC(=O)[C@H](CC(C)C)NC(=O)[C@@H](CC(C)C)NC(=O)[C@H](CCCCN)NC(=O)[C@@H](CC(C)C)NC(=O)[C@H](CC(C)C)NC(=O)[C@@H](CCCCN)NC(=O)[C@H](CC(C)C)NC(=O)[C@@H](CC(C)C)NC(=O)[C@H](CCCCN)NC(=O)[C@@H](N)CCCCN)C(N)=O | > 2000
CC(C)C[C@H](NC(=O)[C@H](CC(C)C)NC(=O)[C@H](CC(C)C)NC(=O)[C@@H](CCCCN)NC(=O)[C@@H](CC(C)C)NC(=O)[C@@H](CC(C)C)NC(=O)[C@@H](CCCCN)NC(=O)[C@H](CC(C)C)NC(=O)[C@H](CC(C)C)NC(=O)[C@H](CCCCN)NC(=O)[C@@H](N)CCCCN)C(N)=O | 1000

System: not listed separately
Assay: Induction of membrane disruption in eukaryotic inner membrane mimic EYPC vesicles assessed as carboxyfluorescein leakage at 10 ug/ml measured after 240 secs by fluorescence based assay
Assay type: cell membranes
Details: dose 10.0 µg/ml, time 240.0 sec

Compound | Activity [%]
CC(C)C[C@H](NC(=O)[C@H](CCCCN)NC(=O)[C@H](N)CCCCN)C(=O)N[C@@H](CC(C)C)C(=O)N[C@H](CCCCN)C(=O)N[C@H](CC(C)C)C(=O)N[C@H](CC(C)C)C(=O)N[C@@H](CCCCN)C(=O)N[C@@H](CC(C)C)C(=O)N[C@@H](CC(C)C)C(=O)N[C@H](CC(C)C)C(N)=O | 3
CC(C)C[C@H](NC(=O)[C@H](CC(C)C)NC(=O)[C@@H](CC(C)C)NC(=O)[C@@H](CCCCN)NC(=O)[C@H](CC(C)C)NC(=O)[C@H](CC(C)C)NC(=O)[C@@H](CCCCN)NC(=O)[C@@H](CC(C)C)NC(=O)[C@H](CC(C)C)NC(=O)[C@H](CCCCN)NC(=O)[C@@H](N)CCCCN)C(N)=O | 2
CC(C)C[C@H](NC(=O)[C@H](CC(C)C)NC(=O)[C@@H](CC(C)C)NC(=O)[C@H](CCCCN)NC(=O)[C@@H](CC(C)C)NC(=O)[C@@H](CC(C)C)NC(=O)[C@H](CCCCN)NC(=O)[C@@H](CC(C)C)NC(=O)[C@@H](CC(C)C)NC(=O)[C@H](CCCCN)NC(=O)[C@@H](N)CCCCN)C(N)=O | 4
CC(C)C[C@H](NC(=O)[C@H](CC(C)C)NC(=O)[C@@H](CC(C)C)NC(=O)[C@H](CCCCN)NC(=O)[C@@H](CC(C)C)NC(=O)[C@H](CC(C)C)NC(=O)[C@@H](CCCCN)NC(=O)[C@H](CC(C)C)NC(=O)[C@@H](CC(C)C)NC(=O)[C@H](CCCCN)NC(=O)[C@@H](N)CCCCN)C(N)=O | 3
